Reference: patent publication US20220334101A1, “MODULATING EXTRACELLULAR MATRIX MOVEMENT” (Helmholtz Zentrum Muenchen - Deutsches Forschungszentrum …, priority 2019, published 2022)
Entries after “also recorded” stand apart in the source; their conditions may differ. Where a name gives a salt, the structure may show the parent alone.

What was measured:
fascia fibroblasts [1] = assay: 3D staining of fascia tissue for αSMA, Ki67 and caspase 3; assay type: cell-based, mouse; details: fascia tissue in Matrigel
Procedure: (§1) In order to characterize the properties of fascia samples cultured in Matrigel, the Inventors fixed the whole gel (with fascia tissue embedded inside) and conducted 3D staining. Samples were immersed overnight in PBSGT (lx PBS implemented with 0.2% gelatin (Sigma), 0.5% Triton X-100 (Sigma) and 0.01% thimerosal (Sigma)) at room temperature and incubated with primary antibodies diluted in PBSGT for three days at room temperature. The tissues were then washed three times with PBSGT for at least 30 min each time and incubated with secondary antibodies diluted in PBSGT for one day. Finally, tissues were rinsed three times with PBSGT and stored in PBS at 4° C. until imaging. 3D whole mount imaging was conducted with a Leica SP8 multi-photon microscope.
(§2) Primary and secondary antibodies applied in 3D staining: αSMA (ab21027, Abcam), Ki 67 (ab16667, Abcam), Cleaved Caspase-3 (9661S, Cell signalling), Gli1 (ab49314, Abcam), Donkey anti rabbit AF647 (A-31573, Life Technologies), Donkey anti goat AF647 (A-21447, Life Technologies).
To better understand the molecular basis of reticulations that leads to scarring, the Inventors took a closer look at the molecular targets of the ‘hit’ chemicals. […] Thiostrepton reduces the binding activity of the transcriptional factor FoxM1; a positive regulator of Gli1 signaling (REF). Whereas Itraconazole inhibits Gli nuclear activity through stopping SMO moving to the membrane of primary cilia and thus inhibiting the pathway (James et al., 2010). […] The 3rd anti-scar drug Fluvastatin inhibits 3-Hydroxy-3-methylglutaryl-coenzyme A (HMG-CoA) reductase, a rate-limiting enzyme in cholesterol biogenesis that is required for hedgehog pathway activation (Huang P et al., 2016; Giovanni Luchetti et al., 2016). […] Thus, the Inventors conclude that anti-fibrosis chemicals converge on SHH pathway signaling to modulate fibroblast sprouting and reticulations, needed to mobilize fascia jelly into sites of injury.
The hedgehog pathway was also reported to induce proliferation and to depress apoptosis.

Gli1 = assay: 3D staining of fascia tissue for Gli1 (hedgehog pathway); assay type: cell-based, mouse; details: fascia tissue in Matrigel
Procedure: as §1, §2
To better understand the molecular basis of reticulations that leads to scarring, the Inventors took a closer look at the molecular targets of the ‘hit’ chemicals. […] Thiostrepton reduces the binding activity of the transcriptional factor FoxM1; a positive regulator of Gli1 signaling (REF). […]

fascia fibroblasts [2] = assay: Fascia invasion assay (ex vivo fascia 3D Matrigel culture); assay type: cell-based, mouse; details: sodium salt
Procedure: In order to observe the dynamic changes of fascia fibroblasts, the inventors isolated dorsal skin from P4 to P6 neonates of En1^Cre; R26^mTmG mouse lines. Cre positive neonates from this double transgenic mouse line were detected by green fluorescent signal in dorsal skin with a Leica M205 FA stereo microscope. Matrigel was prepared by diluting the stock aliquots with DMEM/F12 medium to a concentration of 6 mg/ml. Then 150 μl prepared gel was added in the center of a 35 mm cell culture dish (Ibidi). 4 mm biopsies were made from the dorsal skin and fascia tissues were then isolated from the dorsal skin tissues. Isolated fascia tissues were then embedded into the gel and were allowed to be solidified for one hour at 37° C. Then the tissue-gel system was maintained in DMEM/F12 medium (Life Technologies) supplemented with 10% FBS (Life Technologies), 1% non-essential amino acid (Thermo Fisher), 1% Glutamax (Thermo Fisher), 1% penicillin and streptomycin (Thermo Fisher) in a 37° C. incubator supplied with 95% O2 and 5% CO2. Medium was changed every other day until day 4 when tissues were collected and fixed. For fixation with Matrigel system, tissues were fixed in 2% paraformaldehyde (VWR) with 0.1% glutaraldehyde (Sigma) for 1 hour and then washed three times with phosphate buffered saline (PBS, Life Technologies) and stored in PBS at 4° C.
Fascia tissues were recorded everyday by a brightfield microscope to check the invasion and contraction state of the tissues. The invasion index was calculated with the following formula: Invasion index=(SD4−SD0)/SD0
SD4 and SD0 represent tissue size (including the migrated area) on Day 4 and Day 0, respectively. The contraction index was calculated with the following formula: Contraction index=(TD0−TD4)/TD0
TD4 and TD0 represent original tissue size (excluding the migrated area) on Day 4 and Day 0 respectively.
The Inventors isolated fascia from back-skin of En1^Cre; R26^mTmG double-transgenic mice, separately incubated whole fascia explants with 26 small molecules, and measured the invasion index (Si)=(SD4−SD0)/SD0 (see Methods) as a proxy measure of sprouting and reticulation.

skin-fascia explants = assay: Scar-in-a-dish (SCAD) ex vivo skin-fascia explant assay, screening of Prestwick chemical library; assay type: cell-based, mouse; details: molecules of table 1 named as inhibitors of ECM movement
Source text: Post born Day 0 (P0) neonates of C57BL/6J wild type mouse were first sacrificed by decapitation. Then dorsal back skin was isolated to make 2 mm full thickness biopsies (0 2 mm, Stiefel) that included the epidermis, dermis and deep subcutaneous fascia layers. The whole skin tissue explant system is termed as scar-in-a-dish (SCAD) assay (Patent Application no. PLA17A13). The SCAD tissue was maintained in DMEM/F12 cell culture medium (Life Technologies) supplemented with 10% FBS (Life Technologies), 1% non-essential amino acid (Thermo Fisher), 1% Glutamax (Thermo Fisher), 1% penicillin and streptomycin (Thermo Fisher) in a 37° C. incubator supplied with […] and 5% CO2. Medium was changed every other day until day 5 when SCADs were collected and fixed for histology analysis. To be noticed, the excised skin was submerged […] in culture media, which confined the scar-prone fibroblasts to the explant and discouraged their adherence to the tissue culture plate.
The PCL provides an additional advantage as all chemicals are of stable physicochemical properties, show a high range of chemical diversity, and are with known bioavailability and safety data in humans. All these information helps to reduce the probability of screening low-quality hits and save the costs of preliminary screening process.
In order to accommodate to medium scale screening approach, the Inventors adapted the SCAD explant system into 96-well plate (Falcon) formats, with each well contained one biopsy. […] Plate and liquid handling were performed using a high-throughput screening platform system composed of a Sciclone G3 Liquid Handler from PerkinElmer (Waltham, Mass., USA). On Day 0 tissues were treated either with the respective compound (1 mM stock solution) dissolved in 100% dimethyl sulfoxide (DMSO, Carl Roth) or DMSO alone. 0.5 μl of compounds/DMSO were transferred with a 96-array head to 200 μl DMEM/F12 medium per well to keep the final DMSO concentrations at […]. Tissues were then incubated (37° C.; 5% CO2) for 72 h prior to a second round of compound treatment, which was performed by exchanging cell culture medium per well and transferring […] of compounds/DMSO into the fresh medium. After an incubation time of another 48 h (37° C.; 5% CO2) the tissues were harvested and fixed for histological processing and imaging.
Briefly, the Inventors excised 2-mm full thickness skin biopsies that included epidermis, dermis, and deep subcutaneous fascia layers from mouse backs (see Methods). Skin-fascia explants were submerged fascia-side up in culture media, to confine scar-prone fibroblasts to the explant and discourage their adherence to the tissue culture plate.
The Prestwick library has selected a diverse array of chemicals with strong physicochemical properties, with known bioavailability and clinical safety data. The library is an ideal place to start screening as it covers all major therapeutic chemical classes such as central nervous system, cardiovascular system, metabolism, and infectious diseases.

[3] = test system: fascia matrix mobilization into wounds; assay: Fascia labelling study: fascia mobilization into excisional back-skin wounds in live mice; assay type: in vivo, mouse; details: 75 μl of 250 μM three times a week, wounds collected Day 7, sodium salt
Procedure: For the fascia labelling study, 2 mg/ml NHS-fluorescein dye was subcutaneously injected into dorsal skin of wildtype mice at 4 days and 2 days prior to the surgery. After labelling, excisional wounds were made in mouse back-skin and treated with 75 μl saline diluted chemical solutions with a final concentration of 250 μM three times a week from the surgery day onwards. Scar samples were collected on D7.
Having discovered sprouting and reticulations are altered by the compounds, the Inventors went on to check how these effect fascia mobilization in physiologic wounds in live animals. First, the Inventors labelled the subcutaneous fascia layer with a FITC-NHS ester dye in animals, then made full thickness excisional wounds on the backs of fascia-labelled mice, and followed wound healing under the presence of a […] injection regimen using the above 3 separate compounds. Skin wounds were collected at Day 7 after wounding to determine the extent of fascia mobilization and also at 21 days post-injury to determine final wound size and scar severity. In DMSO control groups, the fascia matrix jelly was mobilized into the wound from all sides of the wound, and wounds at 7 days were completely clogged with large patches of labelled matrix jelly.

[4] = test system: scars of splinted back-skin wounds; assay: In vivo splinted wound model (scar formation); parameters: species or system mouse; details: 75 μl per wound of 250 μM intra-dermally, day 21, trichrome staining
fascia matrix = assay: Fascia in vitro culture, live imaging of matrix movements (SHG); assay type: cell-based, mouse; details: C57BL6/J neonate fascia biopsy, 100 μM Etoposide
Procedure: Two in vitro systems were used. To visualize the changes in matrix architecture in real time, 2 mm-diameter biopsies were excised from P0 C57BL/6J neonates and processed for live imaging (SCAD assay, Patent Application No. PLA17A13). To determine the effectiveness of the DT treatment, muscle+fascia was manually separated from the rest of the skin in the chimeric grafts experiments and incubated with DT at different concentrations for 1 h at ambient temperature. […]
Histological sections were imaged using a using a ZEISS AxioImager.Z2m (Carl Zeiss). […] Second harmonic generation signal and green auto-fluorescence as a reference were recorded every hour. […]
Histological images were analyzed using ImageJ. For quantification of labeled cells in the fate mapping experiments, the Inventors manually defined the wound, surrounding dermis, and adjacent fascia areas. […] The number of labeled cells in each area was determined by quantifying the particles that were double-positive for DAPI and for the desired label (eg. Dil, GFP, etc) channels. The coverage of the labeled matrix in the wound area was determined by quantifying the area that was double-positive for the labeled matrix and the COLLAGEN I+III+VI staining signal. […] Scar length was quantified from randomly selected sections taken from the middle of the scar using as a reference the two flanking hair follicles. […]

In the case of `CC(C)n1c(/C=C/C(O)CC(O)CC(=O)O)c(-c2ccc(F)cc2)c2ccccc21` (centres unmarked) [Fluvastatin sodium salt], the “cell death (caspase 3)” value (fascia fibroblasts [1]) is reported as “increased”, the “cell proliferation activity (Ki67)” value (fascia fibroblasts [1]) is reported as “decreased” and the “αSMA expression / activation into myofibroblasts” value (fascia fibroblasts [1]) is reported as “cells can be activated into myofibroblast”. For the same compound, the Gli1 protein expression (Gli1) was “weakly expressed”, the “inter-cell connectivity, sprouting and reticulations within the fascia” value (fascia fibroblasts [2]; listed as Fluvastatin) was “intact cell-cell connection and network formation” and the “inter-cell connectivity, sprouting and reticulations within the fascia” value (fascia fibroblasts [2]) was “completely inhibited sprouting and reticulations”. For the same compound, the “phenotype as inhibitor of ECM movement” value (skin-fascia explants) was “anti-fibrotic phenotype”, the “fascia (matrix jelly) mobilization into wounds” value ([3]; listed as Fluvastatin) was “completely inhibited” and the “fascia (matrix jelly) mobilization into wounds” value [3] was “reduced fascia jelly movements”. The “scar size / scarring of wounds” value [4] was “reduced scaring of wounds”.
In the case of `COc1cc([C@@H]2c3cc4c(cc3[C@@H](O[C@@H]3O[C@@H]5CO[C@@H](C)O[C@H]5[C@H](O)[C@H]3O)[C@H]3COC(=O)[C@H]23)OCO4)cc(OC)c1O` [Etoposide], the “fascia matrix movements (contraction)” value (fascia matrix) is reported as “no effect; also recorded: clear contraction of the fascial matrix in culture in absence of cell proliferation”.
